Data taken from patent US9273043B2, “TRPV1 antagonists including dihydroxy substituent and uses thereof” (Purdue Pharma L.P., priority 2011, dated 2016).
In brackets after ≈: the same amount, converted by molar mass. Read-outs that look alike come from different tables or passages of the source.

Assays:
human TRPV1 [1] = target: T1, human TRPV1 (Homo sapiens (Human), UniProt Q8NER1); experiment: pH-based assay, Protocol 2, TRPV1/CHO cells (hpH-CHO), Fura-2 Ca2+ influx; assay type: cell-based; details: pH 5.0-5.1 (H2SO4), mean ± SEM
Description: For Protocol 2, a Chinese Hamster Ovary cell line (CHO) that has been engineered to constitutively express human recombinant TRPV1 was used (TRPV1/CHO cells). The TRPV1/CHO cell line was generated as described below.
TRPV1/CHO cells were seeded in the 96-well clear-bottom black-wall plate (Nunc) at densities of 1-2×10^4 cells/well and grown in 100 μL of culture medium (alpha-MEM supplemented with 10% FBS, 20 mM HEPES, 1 mg/mL geneticin and 1% antibiotic-antimycotic mixed stock solution) for 1-2 days before the experiment.
(1) Culture medium was removed using an 8-channel-pipette (Rainin, USA) from the 96-well plate and the wells were refilled with 100 μL of loading buffer (20 mM HEPES, 115 mM NaCl, 5.4 mM KCl, 0.8 mM MgCl2, 1.8 mM CaCl2, 13.8 mM D-glucose, 2.5 mM probenecid, pH 7.4) containing 5 μM Fura-2 AM (Dojin, Japan).
(2) The 96-well plate was incubated at 37° C. for 45 min.
(3) The loading buffer was removed from each well. The cells were subsequently washed twice with 150 μL of measuring buffer (20 mM HEPES, 115 mM NaCl, 5.4 mM KCl, 0.8 mM MgCl2, 5.0 mM CaCl2, 13.8 mM D-glucose, 0.1% BSA, pH 7.4) (no probenecid). The wells were then refilled with 80 μL of measuring buffer.
(4) After an incubation at 4° C. for 15 min, the 96-well plate was transferred to a model FDSS-3000 plate reader apparatus (Hamamatsu Photonics K.K., Japan).
(5) The Fura-2 fluorescent intensity was monitored at a wavelength of 340 nm and at 380 nm, respectively, at a rate of 0.5 Hz for a total of 240 seconds. After 16 time points (32 sec) of baseline detection, 20 μL of agonist solution was added to each well. The final volume was 100 μL/well.
(6) Fluorescence intensity ratio refers to the fluorescence intensity at 340 nm over the fluorescence intensity at 380 nm at a particular time point. The baseline was set as the average of the fluorescent intensity ratios for the first 16 time points before the addition of agonist solution. The maximum response was the highest fluorescent intensity ratio during the 60 time points following addition of agonist solution.
(7) Maximal signal ratios from each well were calculated as output data using the FDSS-3000 analysis program. Data were analyzed using Excel (Microsoft) and XLfit (idbs) software.
In an “agonist plate,” two different agonist solutions with different H2SO4 concentrations were used for the pH assay (see, e.g., FIG. 3A of U.S. Patent Application Publication No. US 2009/0170868 A1). For the first half of a 96-well plate one agonist solution was used; for the second half the other agonist solution was used. The agonist solutions were obtained by diluting sulfuric acid (1M H2SO4) with measuring buffer. The concentrations for the two agonist solutions were determined as described above in Section 2 of Protocol 2.
The sulfuric acid concentrations between the two agonist solutions differed by 0.5 mM. In the experiment described in Section 2 of Protocol 2, the sulfuric acid concentrations in the agonist solutions were determined to be 16 mM and 16.5 mM, respectively. After 1:4 dilution of the agonist solutions, the final sulfuric acid concentration was 3.2 mM and 3.3 mM, respectively. The resulting pH value for the pH assay was 5.0 to 5.1.
Test compounds were dissolved in DMSO to yield 1 mM stock solutions. The stock solutions were further diluted using DMSO in […] serial dilution steps with 6 points (1000, 250, 62.5, 15.625, 3.9062, and 0.977 μM). The thereby-obtained solutions were further diluted in measuring buffer (1:100) as 10× stock serial dilutions with a DMSO concentration of 1%. 10 μL of a 10× stock was added into each well of an “antagonist plate” (see step 3.3.(4) below). Thus, the final concentrations of antagonists was as follows: 0.977, 3.906, 15.63, 62.5, 250, and 1000 nM containing 0.1% DMSO (see, e.g., FIG. 3B of U.S. Patent Application Publication No. US 2009/0170868 A1).
Steps (1) and (2) of this Assay were the same as steps 2.2.(1) and 2.2.(2), respectively, of Protocol 2. […]

human TRPV1 [2] = target: T1, human TRPV1; experiment: Human TRPV1 heat-based assay, hTRPV1/CHO cells (hHeat-CHO); assay type: cell-based; details: temperature ramp 25 to 45 °C, mean ± SEM
Description: Human TRPV1 Heat-based Assay:
CHO cells stably expressing human TRPV1 (hTRPV1) were used. Functional assessment of heat-induced activation of hTRPV1 was carried out in a cell-based Ca^2+ flux assay using ABI7500 Fast Real-Time PCR System as described in Reubish et al., “Functional assessment of temperature-gated ion-channel activity using a real-time PCR machine,” www.BioTechniques.com 47(3):iii-ix (2009), which is hereby incorporated by reference. Briefly, hTRPV1/CHO cells were cultured in growth media in a tissue culture dish at 37° C. in a CO2 incubator. On the day of the assay, culture media were removed and the cells were then detached using 0.05% trypsin at 37° C. with 5% CO2, for 90 s. The detached cells were centrifuged (1000 rpm, 4 min) to remove trypsin-containing supernatant and resuspended in assay buffer (115 mM NaCl, 5.4 mM KCl, 0.8 mM MgCl2.6H2O, 1.8 mM CaCl2.2H2O, 13.8 mM D-glucose, and 20 mM HEPES). Then, the cells were loaded with 5 μM Fluo-4, a Ca^2+ reporter dye, in the presence of 2.5 mM probenecid at 37° C. with 5% CO2, for 45 min. Thereafter, the cells were washed twice with measuring buffer (assay buffer supplemented with 0.1% BSA and 3.2 mM CaCl2) then transferred to a Fast 96-well Reaction Plate (0.1 mL) (Part no. 4346907, MICROAMP, Applied Biosystems, Foster City, Calif.). The cell density was 100,000 cells/24 μL/well. A solution of the compound under test (6 μL/well) was added into each well of the 96-well plate. Thus, the reaction volume per well was 30 μL.
The plates were then placed inside an ABI7500 Fast Real-Time PCR instrument (Applied Biosystems) to read fluorescence at different temperatures using 7500 software, version 2.0.2 (Applied Biosystems). The initial temperature was set at 25° C. for 1 min. followed by a temperature ramp to 45° C. in 100 s to deliver heat to cells. [Ca^2+], response of hTRPV1/CHO cells to heat was determined as: [fluorescence read at 45° C.−fluorescence read at 25° C.].
Compound concentration response curves and IC50 values were analyzed using GraphPad Prism 4 software (GraphPad Software, La Jolla, Calif.).
The IC50 data provided in Table 6 are shown as mean±standard error of the mean; the number of trials conducted for each assay is shown in parentheses except for only a single trial where no number of trials is shown in parentheses.

human TRPV1 [3] = target: T1, human TRPV1; experiment: Capsaicin-based assay, Protocol 2, TRPV1/CHO cells (hCAP-CHO), Fluo-4 FLIPR; assay type: cell-based; details: 100 nM capsaicin, mean ± SEM
Excerpt: The TRPV1/CHO cell line was generated as described below. […] The resulting PCR products were purified from agarose gels using Gel Band Purification Kit (GE Healthcare Bioscience) and were subcloned into pCR-Blunt vector (Invitrogen). The cloned cDNA was fully sequenced using a fluorescent dye-terminator reagent (BigDye Terminator ver3.1 Cycle Sequencing Kit, Applied Biosystems) and ABI Prism 3100 genetic analyzer (Applied Biosystems). The pCR-Blunt vector containing the hTRPV1 cDNA was subjected to restriction digestion with EcoR1. The restriction fragment was subcloned into expression vector pcDNA3.1(-) (Invitrogen) and named pcDNA3.1(-)-hVR1 plasmid. The sequence of the cDNA encoding TRPV1 is available at GenBank accession number AJ277028. […] The cells were transfected with the pcDNA3.1(-)-hVR1 plasmid using FuGENE6 (Roche) according to the manufacturer's protocol. 24 hr after transfection, neomycin-resistant cells were selected using 1 mg/mL G418 (Nacalai Tesque). […] The cells expressing hTRPV1 were cultured in the growth medium supplemented with 1 mg/mL G418. […] Capsaicin-based Assay: […] Subsequently, the cells were loaded by incubation in 0.1 mL of wash buffer containing Fluo-4 at 3 μM final concentration. After 1 hour, the cells were washed twice with 0.2 mL wash buffer and resuspended in 0.1 mL wash buffer. The plates were then transferred to a Fluorescence Imaging Plate Reader (Molecular Devices). Fluorescence intensity was monitored for 15 seconds to establish a baseline. […] The final concentration of the compound was adjusted to range from 100 μM to 1.5625 μM. […] Data were collected over the entire time course and analyzed using Excel and the curve-fitting formula GraphPad Prism.

[4] = In vivo assay of body temperature increase (rectal body temperature); set-up: species or system rat; details: rats, oral, 10 mL/kg of 1 mg/mL in 0.5% methylcellulose; greatest ΔTb versus vehicle control at 0.5, 1 or 2 hrs
Excerpt: Hyperthermia or undesirable elevation in animal body temperature is known to be an undesirable side-effect accompanying the administration of certain TRPV1 antagonists (Gavva, “Body-temperature maintenance as the predominant function of the vanilloid receptor TRPV1,” Trends Pharmacol. Sci. 29(11):550-557 (2008)).
Test Animals: Selection of rats (Crl/SD rats, 7 weeks, male) was based on rectal body temperature measured during the morning of the day of dosing as described below. In addition, to minimize spontaneous, stress-induced increases in body temperature, rats were acclimated in advance to both the rectal measurement procedure and to being handled and dosed. All lodging and testing took place in animal care laboratories with constant room temperature and humidity. The rats were free to move and ingest food and water throughout. Each rat was coded with a colored line on the tail, housed in a separate cage, and permitted the normal range of movement. Immediately before each body temperature measurement, a rat was transferred to a measurement cage. To reduce stress which could influence its body temperature, each rat was covered with towels during the measurement. A thermistor probe was then carefully inserted into the rectum of each rat and left in place until the temperature reading on the digital display had stabilized; this value was recorded.
Assay: On the day before dosing, rectal body temperature was measured at 9:00, 10:00, 11:00, 12:30, 13:30, 14:30, and 15:30 o'clock to familiarize the rats with the measurement procedure prior to administration of the test or control treatments. The rats were also dosed by oral gavage without vehicle at 12:30 o'clock to acclimate and familiarize them with the handling and dosing procedure.
On the day of dosing, only rats with rectal body temperatures within the range of from 37.0° C. to 37.7° C. were selected for study. Rectal body temperatures were measured at 9:00, 10:00, and 11:00 o'clock. Rats were excluded from the study if either their rectal body temperature was over 37.9° C. at 10:00 o'clock or was outside the range of from 37.0° C. to 37.7° C. at 11:00 o'clock. The selected rats were divided into several groups based on their rectal body temperatures at 11:00 o'clock. Rectal body temperatures of the selected rats were measured again at 12:30 o'clock and any rat with a rectal body temperature of 38.0° C. or greater was also excluded from the study.
Following assignment to either a test or control group, a test compound or a control was administered to the rats. Each test compound was dissolved in a vehicle of 0.5% aqueous methylcellulose solution and the final concentration of the test compound was adjusted to 1 mg/mL. Each test compound was orally administered once at a dose of 10 mL/kg. The same volume of the control (vehicle only) was administered once to the control group. Rectal body temperatures were measured at the following time points: 0.5, 1, and 2 hrs after administration.
The body temperature increase (ΔTb) for each test compound was calculated by subtracting, at each time point, the average temperature of the control group from the average temperature of the group administered that test compound. The greatest ΔTb obtained for each test compound at any of the time points is shown in Table 11 below, along with the ΔTb of the control.

[5] = Aqueous solubility at pH 1.2 and pH 6.8; assay type: physicochemical; details: aqueous solution

T1 sequence (Q8NER1 whole entry, looked up): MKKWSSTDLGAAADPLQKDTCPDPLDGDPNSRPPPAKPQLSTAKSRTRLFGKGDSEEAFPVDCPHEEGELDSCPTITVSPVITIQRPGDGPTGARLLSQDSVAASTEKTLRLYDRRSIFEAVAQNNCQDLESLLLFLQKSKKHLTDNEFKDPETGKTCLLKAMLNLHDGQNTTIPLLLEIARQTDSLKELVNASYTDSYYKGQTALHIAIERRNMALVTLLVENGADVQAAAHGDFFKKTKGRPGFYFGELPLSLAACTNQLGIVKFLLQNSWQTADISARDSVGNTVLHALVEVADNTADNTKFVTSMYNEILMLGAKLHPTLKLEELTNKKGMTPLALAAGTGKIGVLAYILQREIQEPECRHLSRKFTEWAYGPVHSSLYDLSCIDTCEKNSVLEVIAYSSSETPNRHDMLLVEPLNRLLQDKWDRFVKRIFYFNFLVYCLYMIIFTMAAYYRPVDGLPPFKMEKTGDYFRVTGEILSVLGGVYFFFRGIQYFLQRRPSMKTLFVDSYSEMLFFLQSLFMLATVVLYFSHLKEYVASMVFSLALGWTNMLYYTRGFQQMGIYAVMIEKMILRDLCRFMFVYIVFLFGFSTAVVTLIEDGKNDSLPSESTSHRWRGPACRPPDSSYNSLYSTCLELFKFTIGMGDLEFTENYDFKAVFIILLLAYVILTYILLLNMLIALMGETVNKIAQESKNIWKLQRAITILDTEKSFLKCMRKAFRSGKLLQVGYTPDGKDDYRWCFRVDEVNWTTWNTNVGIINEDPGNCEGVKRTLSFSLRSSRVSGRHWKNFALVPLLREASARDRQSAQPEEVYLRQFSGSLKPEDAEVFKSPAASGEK

C[C@@H]1CN(c2ncc([C@@H](O)CO)cc2F)CCN1C(=O)Nc1nc2ccccc2s1 [A122(e), (R)—N-(benzo[d]thiazol-2-yl)-4-(5-((R)-1,2-dihydroxyethyl)-3-fluoropyridin-2-yl)-2-methylpiperazine-1-carboxamide]
IC50 (human TRPV1 [1]): 5.8 ± 0.7 nM | IC50 (human TRPV1 [2]): 96 ± 2.4 nM | IC50 (human TRPV1 [3]): 80.6 ± 7.5 nM

C[C@H](O)[C@@H](O)c1cnc(N2CCN(C(=O)Nc3nc4ccc(F)cc4s3)[C@@H](C)C2)c(F)c1 [BB, (S)-4-{5-[(1S,2S)-1,2-dihydroxypropyl]-3-fluoropyridin-2-yl}-N-(6-fluorobenzo[d]thiazol-2-yl)-2-methylpiperazine-1-carboxamide]
IC50 (human TRPV1 [2]): 490 nM | ΔTb, body temperature increase [4]: 0.5 °C | IC50 (human TRPV1 [3]): 63.7 ± 13.4 nM

C[C@@H]1CN(c2ncc([C@@H](O)CO)cc2F)CCN1C(=O)Nc1nc2ccc(F)cc2s1 [A125(e), (R)-4-(5-((R)-1,2-dihydroxyethyl)-3-fluoropyridin-2-yl)-N-(6-fluorobenzo[d]thiazol-2-yl)-2-methylpiperazine-1-carboxamide]
IC50 (human TRPV1 [1]): 0.6 ± 0.2 nM | IC50 (human TRPV1 [2]): 18.4 ± 0.8 nM | IC50 (human TRPV1 [3]): 23.9 ± 3.8 nM

C[C@H]1CN(c2ncc([C@H](O)CO)cc2F)CCN1C(=O)Nc1nc2cc(F)ccc2s1 [A155(a), (S)-4-{5-[(S)-1,2-Dihydroxyethyl]-3-fluoropyridin-2-yl}-N-(5-fluorobenzo[d]thiazol-2-yl)-2-methylpiperazine-1-carboxamide]
solubility ([5]; pH 1.2, simulated gastric fluid, read-out: aqueous solubility at pH 1.2): > 50 µM | solubility ([5]; pH 6.8, aqueous buffer, read-out: aqueous solubility at pH 6.8): 17 µM (≈ 7.64 µg/mL) | IC50 (human TRPV1 [2]): 700 nM | ΔTb, body temperature increase [4]: 0.2 °C | IC50 (human TRPV1 [3]): 96 ± 18 nM

C[C@H](O)[C@@H](O)c1cnc(N2CCN(C(=O)Nc3nc4ccc(Cl)cc4s3)CC2)c(F)c1 [C123(r), N-(6-chlorobenzo[d]thiazol-2-yl)-4-(5-((1S,2S)-1,2-dihydroxypropyl)-3-fluoropyridin-2-yl)piperazine-1-carboxamide]
IC50 (human TRPV1 [1]): 20.6 ± 2.6 nM | IC50 (human TRPV1 [2]): 96 ± 14 nM | IC50 (human TRPV1 [3]): 26.9 ± 3.6 nM
